# Test results from publication PMC10387993, “New pyrimidine-N-β-D-glucosides: synthesis, biological evaluation, and molecular docking investigations” (Turkish Journal of Chemistry, 2023).
# Columns and labels:
# Assay type in all cases: cell-based
# [1] = LDH cytotoxic activity assay, C6; settings: rat, C6 glioma cells; for cytotoxicity at 24 h, 25 μg/mL: C6, 25 μg/mL; for cytotoxicity at 24 h, 50 μg/mL: C6, 50 μg/mL; for cytotoxicity at 24 h, 75 μg/mL: C6, 75 μg/mL; for cytotoxicity at 24 h, 100 μg/mL: C6, 100 μg/mL
# Experimental: The cell lines were cultured in a cell medium (Dulbecco’s modified eagle’s or RPMI 1640) enriched with 10% (v/v) fetal bovine serum and 2% (v/v) Penicillin-Streptomycin (10,000 U/mL). First, old medium was removed out of the flask when the cells reached approximately 80% confluence. Next, cells were taken from the flasks surface using trypsin-EDTA solution and then subjected to centrifugation. Following, the cell pellet was suspended with fresh media and was inoculated into wells.
# Approximately 5 × 10^3 cells in 100 μL were placed into 96-well plates as triplicates and treated with 25, 50, 75, and 100 μg/mL concentrations of test compounds at 37 °C with 5% CO2 for 24 h. LDH activity was obtained by determining absorbance at 492–630 nm using a microplate reader.
# [2] = system: Hep3B; test: cells; settings: Homo sapiens; for GI50 / IC50 / IC (total growth inhibition): MTT; for IC50: read-out: IC50; for IC (total growth inhibition): read-out: TGI; for LC50 (concentration causing 50% net cell loss relative to time zero): read-out: LC50
# Method in brief: (§1)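 In this MTT proliferation screen, formazan formed over 4 h was read at 560 nm against a 690 nm reference. Each line was tested at least three times, and the IC50 was taken as the concentration inhibiting half of the cells.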
# [3] = system: MCF7; test: cells; settings: Homo sapiens; for LC50 (concentration causing 50% net cell loss relative to time zero): MCF7, read-out: LC50; for GI50 / IC50 / IC (total growth inhibition): MCF7, MTT; for IC50: read-out: IC50; for IC (total growth inhibition): read-out: TGI
# Method in brief: as §1
# [4] = system: C6 (Rat brain glioma); test: cells; settings: Rattus norvegicus; for LC50 (concentration giving 50% net cell loss relative to time zero): read-out: LC50; for GI50 / IC50 / IC (total growth inhibition): C6, MTT; for IC50: read-out: IC50; for IC (total growth inhibition): read-out: TGI
# Method in brief: as §1
# [5] = system: HT29; test: cells; settings: Homo sapiens; for LC50 (concentration giving 50% net cell loss relative to time zero): HT-29, read-out: LC50; for GI50 / IC50 / IC (total growth inhibition): HT-29, HT29, MTT; for IC50: read-out: IC50; for IC (total growth inhibition): read-out: TGI
# Method in brief: as §1
smiles,measurement,setting,value
"CC(=O)OC[C@H]1O[C@@H](Nc2nc(-c3ccncc3)cc(-c3ccc(C)cc3)n2)[C@H](OC(C)=O)[C@@H](OC(C)=O)[C@@H]1OC(C)=O [Compound 18, 2,3,4,6-tetra-O-acetyl-N-[4-(4-methylphenyl)-6-pyridin-4-ylpyrimidin-2-yl]-β-D-glucopyranosylamine]","cytotoxicity at 24 h, 25 μg/mL",[1],27.2%
same,"cytotoxicity at 24 h, 50 μg/mL",[1],44.1%
same,"cytotoxicity at 24 h, 75 μg/mL",[1],75.2%
same,"cytotoxicity at 24 h, 100 μg/mL",[1],86.5%
same,GI50,[2],6.15 µg/mL
same,IC50,[2],> 500 µg/mL
same,IC (total growth inhibition),[2],> 500 µg/mL
same,LC50 (concentration causing 50% net cell loss relative to time zero),[2],> 500 µg/mL
same,LC50 (concentration causing 50% net cell loss relative to time zero),[3],> 500 µg/mL
same,GI50,[3],1.79 µg/mL
same,IC50,[3],> 500 µg/mL
same,IC (total growth inhibition),[3],> 500 µg/mL
same,LC50 (concentration giving 50% net cell loss relative to time zero),[4],29.8 µg/mL
same,GI50,[4],2.23 µg/mL
same,IC50,[4],30.1 µg/mL
same,IC (total growth inhibition),[4],5.21 µg/mL
same,LC50 (concentration giving 50% net cell loss relative to time zero),[5],> 500 µg/mL
same,GI50,[5],7.77 µg/mL
same,IC50,[5],> 500 µg/mL
same,IC (total growth inhibition),[5],> 500 µg/mL
"CC(=O)OC[C@H]1O[C@@H](Nc2nc(-c3ccc(C)cc3)cc(-c3cccnc3)n2)[C@H](OC(C)=O)[C@@H](OC(C)=O)[C@@H]1OC(C)=O [Compound 17, 2,3,4,6-tetra-O-acetyl-N-[4-(4-methylphenyl)-6-pyridin-3-ylpyrimidin-2-yl]-β-D-glucopyranosylamine]","cytotoxicity at 24 h, 25 μg/mL",[1],32%
same,"cytotoxicity at 24 h, 50 μg/mL",[1],44.6%
same,"cytotoxicity at 24 h, 75 μg/mL",[1],67.6%
same,"cytotoxicity at 24 h, 100 μg/mL",[1],81.8%
same,GI50,[2],3.86 µg/mL
same,IC50,[2],> 500 µg/mL
same,IC (total growth inhibition),[2],> 500 µg/mL
same,LC50 (concentration causing 50% net cell loss relative to time zero),[2],> 500 µg/mL
same,LC50 (concentration causing 50% net cell loss relative to time zero),[3],> 500 µg/mL
same,GI50,[3],2.19 µg/mL
same,IC50,[3],> 500 µg/mL
same,IC (total growth inhibition),[3],> 500 µg/mL
same,LC50 (concentration giving 50% net cell loss relative to time zero),[4],> 500 µg/mL
same,GI50,[4],> 500 µg/mL
same,IC50,[4],> 500 µg/mL
same,IC (total growth inhibition),[4],> 500 µg/mL
same,LC50 (concentration giving 50% net cell loss relative to time zero),[5],> 500 µg/mL
same,GI50,[5],3.09 µg/mL
same,IC50,[5],> 500 µg/mL
same,IC (total growth inhibition),[5],> 500 µg/mL
"CC(=O)OC[C@H]1O[C@@H](Nc2nc(-c3cccc(C)c3)cc(-c3ccccn3)n2)[C@H](OC(C)=O)[C@@H](OC(C)=O)[C@@H]1OC(C)=O [Compound 13, 2,3,4,6-tetra-O-acetyl-N-[4-(3-methylphenyl)-6-pyridin-2-ylpyrimidin-2-yl]-β-D-glucopyranosylamine]","cytotoxicity at 24 h, 25 μg/mL",[1],15%
same,"cytotoxicity at 24 h, 50 μg/mL",[1],51.2%
same,"cytotoxicity at 24 h, 75 μg/mL",[1],77.1%
same,"cytotoxicity at 24 h, 100 μg/mL",[1],98.3%
same,GI50,[2],2.56 µg/mL
same,IC50,[2],> 500 µg/mL
same,IC (total growth inhibition),[2],> 500 µg/mL
same,LC50 (concentration causing 50% net cell loss relative to time zero),[2],> 500 µg/mL
same,LC50 (concentration causing 50% net cell loss relative to time zero),[3],> 500 µg/mL
same,GI50,[3],1.84 µg/mL
same,IC50,[3],297 µg/mL
same,IC (total growth inhibition),[3],397 µg/mL
same,LC50 (concentration giving 50% net cell loss relative to time zero),[4],33.9 µg/mL
same,GI50,[4],1.97 µg/mL
same,IC50,[4],7.55 µg/mL
same,IC (total growth inhibition),[4],4.7 µg/mL
same,LC50 (concentration giving 50% net cell loss relative to time zero),[5],> 500 µg/mL
same,GI50,[5],2.94 µg/mL
same,IC50,[5],> 500 µg/mL
same,IC (total growth inhibition),[5],> 500 µg/mL
